Experimental data: patent US10668135B2, “Methods of treating or preventing periodontitis and diseases associated with periodontitis” (The Trustees of the University of Pennsylvania, priority 2012, dated 2020)
“Also recorded” adds a separate entry of the source.

What was measured:
[1] = test system: ligature-induced periodontitis; test: Initial NHP study: ligature-induced periodontitis, maxillary posterior teeth, split-mouth, 6 weeks, two animals; format: in vivo, cynomolgus monkey; conditions: for clinical inflammation (inflammatory clinical parameters: probing pocket depth, gingival index, bleeding on probing, mobility index): Cp40 500 μg injected locally into maxillary interdental papillae, from day 3, vs inactive analog on contralateral side, 6 weeks, FIG. 4; for levels of proinflammatory cytokines in the gingival crevicular fluid (GCF): FIG. 5; for numbers of osteoclasts (TRAP-positive multinucleated cells) in bone biopsy specimens / osteoclastogenesis: FIG. 5G
Method: FIG. 4A, FIG. 4B, FIG. 4C, and FIG. 4D show results for probing pocket depth, gingival index, bleeding on probing, and mobility index, respectively, which are measurements typically used to detect clinical periodontal inflammation and bone lose. FIG. 4E represents a radiograph measurement of bone height. Starting 3 days after initiation of ligature-induced periodontitis, Cp40 (500 μg) was injected locally into the maxillary interdental papillae from the 1st premolar to the 2nd molar, in two animals, three times weekly. […] Shown are the effects of Cp40 on the indicated inflammatory clinical parameters and bone heights, determined using standardized X-ray images (taken at week 6) and NIKON imaging system software. Specifically, the distance between the cement-enamel junction (CEJ) and alveolar bone crest (ABC) was measured at six points (1st premolar, distal; 2nd premolar mesial & distal; 1st molar, mesial & distal; 2nd molar mesial) and the data in Panel E reflect the 6-site total. The higher CEJ-ABC distance values of the controls as compared to those of Cp40 treatments signify increased bone loss in the absence of drug treatment. In all animals, the gingival margin was at the cement-enamel junction, and thus, PPD readings equaled clinical attachment loss (CAL).
Specifically, the panels show the relative protein levels for TNF (FIG. 5A), IL-1b (FIG. 5B), IL-6 (FIG. 5C), IL-17A (FIG. 5D), receptor activator of nuclear factor kappa-B ligand (RANKL; FIG. 5E), and osteoprotegerin (OPG; FIG. 5F). At the same timepoints that clinical exams were performed (as per FIGS. 4A-4E), GCF was collected from the same monkeys (treatment details in FIGS. 4A-4E legend) using PERIOPAPER absorbent strips to assay the indicated cytokines. Total cytokine content in the eluted GCF samples was measured using MILLIPLEX MAP (multi-analyte panels) kits on a BIO-PLEX detection system. In FIG. 5G, TRAP-positive multinucleated cells (osteoclasts) were enumerated in nine serial sections for each bone biopsy specimen taken between the 2nd premolar and 1st molar of each animal.
The cynomolgus monkey model is therefore considerably more predictive of drug efficacy in human periodontitis as compared to other, widely used preclinical animal models such as rodents. Moreover, the cynomolgus model of ligature-induced periodontitis allows longitudinal examination of the disease in a way that cannot be performed in humans.
Thus, each animal served as its own control. An initial study with a 6-week duration was conducted using two animals.

[2] = test system: ligature-induced periodontitis; test: Second NHP study: ligature-induced periodontitis, mandibular posterior teeth, split-mouth, four monkeys; format: in vivo, cynomolgus monkey; conditions: n=4 monkeys
Method: FIG. 6A, FIG. 6B, FIG. 6C, and FIG. 6D show measurements for probing pocket depth, gingival index, bleeding on probing, and mobility index, respectively, between Cp40 treated and control animals. Starting 3 days after initiation of ligature-induced periodontitis, Cp40 (500 μg) or control were injected locally into the mandibular interdental papillae from the 1st premolar to the 2nd molar, three times weekly, in opposites sides of the mouth (split-mouth design). The effects of Cp40 were determined on the indicated inflammatory clinical parameters at the indicated timepoints. In all animals, the gingival margin was at the cement-enamel junction, and thus, PPD readings equaled clinical attachment loss (CAL). Data are means±SD (n=4 monkeys). *, P<0.05; **, P<0.01 vs. control.
Specifically, levels of TNF-α (FIG. 7A), IL-1β (FIG. 7B), IL-6 (FIG. 7C), interleukin 8 (IL-8; FIG. 7D), IL-17A (FIG. 7E), interleukin 18 (IL-18; FIG. 7F), granulocyte colony-stimulating factor (G-CSF; FIG. 7G), RANKL (FIG. 7H), and OPG (FIG. 7I) were measured. At the same timepoints that clinical exams were performed (as per FIGS. 6A-6D), GCF was collected from the same monkeys (treatment details in FIGS. 6A-6D legend) using PERIOPAPER absorbent strips to assay the indicated cytokines. Total cytokine content in the eluted GCF samples was measured using MILLIPLEX MAP (multi-analyte panels) kits on a BIO-PLEX detection system. Data are means±SD (n=4 monkeys). *, P<0.05; **, P<0.01 vs. control.
FIGS. 8A-8C are graphs showing inhibition of periodontal bone loss following treatment of NHP periodontitis with Cp40. Four monkeys were treated as described in the legend to FIGS. 6A-6D, and their mandibular bone heights (CEJ-ABC distance) were measured using standardized X-ray images (taken at baseline and at week 6) and NIKON imaging system software. Measurements were made at six points (1st premolar, distal; 2nd premolar mesial & distal; 1st molar, mesial & distal; 2nd molar mesial) and the data in FIG. 8A and FIG. 8B reflect, respectively, the 6-site total at baseline (FIG. 8A) and at week 6 (FIG. 8B). For each control or Cp40 treatment, bone loss was calculated as bone height at baseline minus bone height at 6 weeks (FIG. 8C). The difference between Cp40 and control was significant (P<0.05; paired t test).
In a second NHP study, ligature-induced periodontitis was induced by placing ligatures around the mandibular posterior teeth (i.e., in the lower jaw) of the same two animals plus in two additional animals (total of four monkeys). The results obtained (FIGS. 6, 7, and 8) confirmed the results of the original study. Moreover, the presence of four animals allowed the possibility for statistical analysis.

[3] = Cp40 500 μg local, three times weekly, vs inactive analog control

Molecule | clinical inflammation (inflammatory clinical parameters: probing pocket depth, gingival index, bleeding on probing, mobility index) ([1]; three times weekly) | levels of proinflammatory cytokines in the gingival crevicular fluid (GCF) [1, 3] | numbers of osteoclasts (TRAP-positive multinucleated cells) in bone biopsy specimens / osteoclastogenesis [1, 3] | bone loss (radiographic bone height, CEJ-ABC distance, 6-site total) ([1]; Cp40 500 μg local, three times weekly, X-ray at week 6, vs inactive analog control, FIG. 4E) | GCF levels of RANKL ([1]; Cp40 500 μg local, three times weekly, vs inactive analog control, FIG. 5E) | GCF levels of osteoprotegerin (OPG) ([1]; Cp40-treated sites vs control sites during the course of the study, FIG. 5F) | probing pocket depth (PPD), protective effect ([2]; Cp40 500 μg injected locally into mandibular interdental papillae, three times weekly, vs control, FIG. 6A) | inflammatory clinical parameters (overall) ([2]; Cp40 500 μg local mandibular, three times weekly, vs control, FIG. 6) | gingival index (GI), protective effect ([2]; Cp40 500 μg local mandibular, three times weekly, vs control, FIG. 6B) | GCF levels of proinflammatory cytokines (cytokine responses) ([2]; Cp40 500 μg local mandibular, three times weekly, vs control, FIG. 7) | periodontal bone loss (bone height at baseline minus bone height at 6 weeks, CEJ-ABC distance) ([2]; Cp40 500 μg local mandibular, three times weekly, vs control, P<0.05 paired t test, FIG. 8C) | GCF RANKL levels ([2]; Cp40 vs. control treatment, FIG. 7H) | GCF OPG levels ([2]; Cp40 vs. control treatment, FIG. 7I)
CC[C@H](C)[C@H](N)C(=O)N[C@H]1CSSC[C@@H](C(=O)N[C@H](C(N)=O)[C@@H](C)O)NC(=O)[C@H](CCCN=C(N)N)NC(=O)[C@H](Cc2cnc[nH]2)NC(=O)[C@H](Cc2cnc[nH]2)NC(=O)CNC(=O)[C@H](Cc2c[nH]c3ccccc23)NC(=O)[C@H](CC(=O)O)NC(=O)[C@H](CCC(N)=O)NC(=O)[C@H](C(C)C)NC(=O)[C@H](C(C)C)NC1=O [Compstatin, Ile-Cys*-Val-Val-Gln-Asp-Trp-Gly-His-His-Arg-Cys*-Thr] | decreased clinical inflammation | reduced levels of proinflammatory cytokines | lower numbers of osteoclasts |  |  |  |  |  |  |  |  |  | 
dTyr-Ile-Cys*-Val-Trp(1Me)-Gln-Asp-Trp-Sar-Ala-His-Arg-Cys*-mIle-NH2 (YICVWQDWGAHRCI; D-Tyr, Trp(1Me), Sar, mIle, disulfide cyclisation, C-terminal amide; compstatin analog (Cp40); MOD_RES (1)..(1) D-Tyrosine; DISULFID (3)..(13) Cysteines joined via disulfide bridge.; MOD_RES (5)..(5) 1-methyl-tryptophan; MOD_RES (9)..(9) …ON, MeGly; MOD_RES (14)..(14) …ON; MOD_RES (14)..(14) AMIDATION) | decreases inflammatory clinical parameters | inhibits proinflammatory cytokine production | decreased osteoclastogenesis | decreased bone loss | decreased GCF levels of RANKL | maintained at higher levels | reached statistical significance | significant inhibition of inflammatory clinical parameters | reached statistical significance | decreased GCF levels of proinflammatory cytokines; also recorded: reached statistical significance | significant inhibition of bone loss | decreased RANKL | increased OPG levels
